Results reported in PubChem BioAssay (NCI).
“And” between values parts separate entries of the source, which are not always exact repeats. Equal entries are not always repeated.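 Five compound concentrations were applied to cells in 96-well plates for 48 hours; endpoints were derived by simple linear interpolation of the resulting dose-response curve. GI50: concentration for 50% inhibition of growth. TGI denotes the concentration required for complete inhibition of growth.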 Where a SMILES comes first, the peptide text is derived from it. The star is where a group is joined. Boc = CC(C)(C)OC(=O)*

tested on: SNB-75 CNS; assay: growth of human tumour cells (NCI), 48 h

| SMILES | GI50 | TGI |
| --- | --- | --- |
| Cn1c(Nc2ccc(C(F)(F)F)cc2)nc2cc(Oc3ccnc(-c4ncc(C(F)(F)F)[nH]4)c3)ccc21 | 0.297 µM | 26.2 µM |
| C[C@@]12CCC[C@@](C)(C(=O)O)C1CC[C@]13CC(=O)[C@](CO)(C1)[C@@H](O)CC32 (some centres not stated) | > 100 µM | > 100 µM |
| O=[N+]([O-])c1ccc(CI)cc1 | 3.27 µM | 15.5 µM |
| CN(C)C/C=C/C(=O)Nc1cc2c(Nc3ccc(F)c(Cl)c3)ncnc2cc1O[C@H]1CCOC1 | 1.48 µM and 0.983 µM | 10.7 µM and 8.33 µM |
| COc1cc(/C=C/C(=O)c2cccc(-n3cc(-c4ccc(Cl)cc4)[nH]c3=O)c2)ccc1O | 2.36 µM | 10.2 µM |
| CCN(Cc1ccc(F)cc1)c1ccc(CO)c(Br)c1 | 6.28 µM | 39.8 µM |
| COc1ccc(-c2cc(/C=C/C(=O)c3ccc(OC)c(OC)c3)[nH]n2)cc1 | 1.55 µM | 3.84 µM |
| CC1(Br)Cc2ccccc2C1=O (configuration not stated) | – | 27 µM |
| CN(C)C(=S)Sc1ccc([N+](=O)[O-])cc1[N+](=O)[O-] | 7.53 µM | 20.5 µM |
| CCOC(=O)/C=C/c1ccc(C#Cc2ccccc2)cc1 | 31.8 µM | 97.1 µM |
| COc1ccc(C(O)(CCC(C)C)C(CN2CCOCC2)c2ccc(Cl)cc2)cc1 (configuration not stated) | 13 µM | 35.2 µM |
| COc1cc(/C=C\c2cc(OC)c(OC)c(OC)c2)cc(N/C=C\C(=O)c2cc(OC)c(OC)c(OC)c2)c1OC | 1.39 µM | 4.81 µM |
| Cn1c(=O)c(Oc2ccc(F)cc2)cc2cnc(NC3CCOCC3)nc21 | > 25 µM | > 25 µM |
| CC1(C)N=C(N)N=C(N)N1c1ccc(CCCCc2ccc(Cl)c(S(=O)(=O)F)c2)c(Cl)c1 | 10.4 µM | > 52.5 µM |
| Clc1nc(Cl)nc(Nc2cccc3ccccc23)n1 | > 100 µM | > 100 µM |
| Cc1cc2cc3c(=O)[nH]c(=O)[nH]c3nc2cc1C | – | 90 µM |
| CC(C)OC(=O)[C@H](C)NP(=O)(OC[C@H]1O[C@@H](n2ccc(=O)[nH]c2=O)[C@](C)(F)[C@@H]1O)Oc1ccccc1 (some centres not stated) | > 100 µM | > 100 µM |
| BrCc1cccc(C[P+](c2ccccc2)(c2ccccc2)c2ccccc2)c1 | 6.78 µM | > 100 µM |
| CN(C)c1ncnc2c1ncn2CCn1cnc2c(N(C)C)ncnc21 | – | > 100 µM |
| O=C(O)c1ccc(C(=O)O)c2c(C(=O)O)ccc(C(=O)O)c12 | – | > 100 µM |
| CSc1nc(NC2OC(COC(C)=O)C(OC(C)=O)C(OC(C)=O)C2OC(C)=O)c(N=CC=Nc2c(NC3OC(COC(C)=O)C(OC(C)=O)C(OC(C)=O)C3OC(C)=O)nc(SC)n(C)c2=O)c(=O)n1C (configuration not stated) | 8.97 µM | 25.4 µM and 24.3 µM |
| O=S(=O)(Nc1ccc(Cl)cc1Cl)c1ccc(-c2cnc(C3CC3)o2)cc1 | 0.185 µM | 0.75 µM |
| O=C(/C=C/C=C/c1ccccc1)c1ccccc1 | – | 41.9 µM |
| C#Cc1nc(Nc2cc(C)[nH]n2)c2ccccc2n1 | 0.167 µM | 0.513 µM |
| COC(=O)C(C)NC(=O)C(CCSC)NC(=O)C(Cc1ccccc1)NC(=O)OC(C)(C)C (stereo not drawn) (Boc-Phe-Met-Ala-OMe; configuration not given here) | 99.7 µg/mL | > 100 µM |
| Cc1nc2cc(Nc3nc(Nc4ccc(F)cc4)nc(-c4cccs4)n3)ccc2n1Cc1ccccc1 | 2.94 µM | > 100 µM |

tested on: OVCAR-5 ovarian; assay: growth of human tumour cells (NCI), 48 h

| SMILES | GI50 | TGI |
| --- | --- | --- |
| Cn1c(Nc2ccc(C(F)(F)F)cc2)nc2cc(Oc3ccnc(-c4ncc(C(F)(F)F)[nH]4)c3)ccc21 | 1.53 µM | 17.4 µM |
| C[C@@]12CCC[C@@](C)(C(=O)O)C1CC[C@]13CC(=O)[C@](CO)(C1)[C@@H](O)CC32 (some centres not stated) | > 100 µM | > 100 µM |
| O=[N+]([O-])c1ccc(CI)cc1 | 6.2 µM | 20.4 µM |
| CN(C)C/C=C/C(=O)Nc1cc2c(Nc3ccc(F)c(Cl)c3)ncnc2cc1O[C@H]1CCOC1 | 0.843 µM and 0.345 µM | 13.3 µM and > 10 µM |
| COc1cc(/C=C/C(=O)c2cccc(-n3cc(-c4ccc(Cl)cc4)[nH]c3=O)c2)ccc1O | 6.45 µM | 15.1 µM |
| CCN(Cc1ccc(F)cc1)c1ccc(CO)c(Br)c1 | 0.0525 µM | 0.225 µM |
| COc1ccc(-c2cc(/C=C/C(=O)c3ccc(OC)c(OC)c3)[nH]n2)cc1 | 1.65 µM | 4.09 µM |
| Oc1ccc(Nc2c3ccccc3nc3occ(Cl)c23)cc1 | 19 µM | > 100 µM |
| CC1(Br)Cc2ccccc2C1=O (configuration not stated) | – | 14.2 µM |
| CN(C)C(=S)Sc1ccc([N+](=O)[O-])cc1[N+](=O)[O-] | 6.01 µM | 18.1 µM |
| CCOC(=O)/C=C/c1ccc(C#Cc2ccccc2)cc1 | > 100 µM | > 100 µM |
| COc1ccc(C(O)(CCC(C)C)C(CN2CCOCC2)c2ccc(Cl)cc2)cc1 (configuration not stated) | 12.2 µM | 25.7 µM |
| COc1cc(/C=C\c2cc(OC)c(OC)c(OC)c2)cc(N/C=C\C(=O)c2cc(OC)c(OC)c(OC)c2)c1OC | 3.64 µM | > 100 µM |
| Cn1c(=O)c(Oc2ccc(F)cc2)cc2cnc(NC3CCOCC3)nc21 | > 25 µM | > 25 µM |
| CC1(C)N=C(N)N=C(N)N1c1ccc(CCCCc2ccc(Cl)c(S(=O)(=O)F)c2)c(Cl)c1 | 13.9 µM | 27.1 µM |
| Clc1nc(Cl)nc(Nc2cccc3ccccc23)n1 | > 100 µM | > 100 µM |
| Cc1cc2cc3c(=O)[nH]c(=O)[nH]c3nc2cc1C | – | > 100 µM |
| CC(C)OC(=O)[C@H](C)NP(=O)(OC[C@H]1O[C@@H](n2ccc(=O)[nH]c2=O)[C@](C)(F)[C@@H]1O)Oc1ccccc1 (some centres not stated) | > 100 µM | > 100 µM |
| BrCc1cccc(C[P+](c2ccccc2)(c2ccccc2)c2ccccc2)c1 | 30.2 µM | > 100 µM |
| CN(C)c1ncnc2c1ncn2CCn1cnc2c(N(C)C)ncnc21 | – | > 100 µM |
| O=C(O)c1ccc(C(=O)O)c2c(C(=O)O)ccc(C(=O)O)c12 | – | > 100 µM |
| CSc1nc(NC2OC(COC(C)=O)C(OC(C)=O)C(OC(C)=O)C2OC(C)=O)c(N=CC=Nc2c(NC3OC(COC(C)=O)C(OC(C)=O)C(OC(C)=O)C3OC(C)=O)nc(SC)n(C)c2=O)c(=O)n1C (configuration not stated) | > 50 µM | > 100 µM |
| O=S(=O)(Nc1ccc(Cl)cc1Cl)c1ccc(-c2cnc(C3CC3)o2)cc1 | 2.66 µM | > 100 µM |
| O=C(/C=C/C=C/c1ccccc1)c1ccccc1 | – | 28.8 µM |
| C#Cc1nc(Nc2cc(C)[nH]n2)c2ccccc2n1 | 0.332 µM | 0.995 µM |
| COC(=O)C(C)NC(=O)C(CCSC)NC(=O)C(Cc1ccccc1)NC(=O)OC(C)(C)C (stereo not drawn) (Boc-Phe-Met-Ala-OMe; configuration not given here) | 31.6 µg/mL | > 100 µM |
| Cc1nc2cc(Nc3nc(Nc4ccc(F)cc4)nc(-c4cccs4)n3)ccc2n1Cc1ccccc1 | 9.62 µM | 27.3 µM |

tested on: K-562 leukemia; assay: growth of human tumour cells (NCI), 48 h

| SMILES | GI50 | TGI |
| --- | --- | --- |
| Cn1c(Nc2ccc(C(F)(F)F)cc2)nc2cc(Oc3ccnc(-c4ncc(C(F)(F)F)[nH]4)c3)ccc21 | 1.76 µM | 25 µM |
| C[C@@]12CCC[C@@](C)(C(=O)O)C1CC[C@]13CC(=O)[C@](CO)(C1)[C@@H](O)CC32 (some centres not stated) | > 100 µM | > 100 µM |
| O=[N+]([O-])c1ccc(CI)cc1 | 0.404 µM | 2.95 µM |
| CN(C)C/C=C/C(=O)Nc1cc2c(Nc3ccc(F)c(Cl)c3)ncnc2cc1O[C@H]1CCOC1 | 3.17 µM and 1.97 µM | 14.1 µM and > 10 µM |
| COc1cc(/C=C/C(=O)c2cccc(-n3cc(-c4ccc(Cl)cc4)[nH]c3=O)c2)ccc1O | 2.36 µM | > 26.4 µM |
| CCN(Cc1ccc(F)cc1)c1ccc(CO)c(Br)c1 | 0.487 µM | 18.4 µM |
| COc1ccc(-c2cc(/C=C/C(=O)c3ccc(OC)c(OC)c3)[nH]n2)cc1 | 1.28 µM | 10.7 µM |
| Oc1ccc(Nc2c3ccccc3nc3occ(Cl)c23)cc1 | 2.24 µM | 53.1 µM |
| CC1(Br)Cc2ccccc2C1=O (configuration not stated) | 0.571 µM | – |
| CN(C)C(=S)Sc1ccc([N+](=O)[O-])cc1[N+](=O)[O-] | 1.06 µM | 25.6 µM |
| CCOC(=O)/C=C/c1ccc(C#Cc2ccccc2)cc1 | 72 µM | > 100 µM |
